Here are results for one compound from paper PMC7297445, “Pharmacokinetic/Pharmacodynamic Determination and Preclinical Pharmacokinetics of the β-Lactamase Inhibitor ETX1317 and Its Orally Available Prodrug ETX0282” (ACS Infectious Diseases, 2020).

A short description of data set [1]: Plasma protein binding. Type of data set: in vitro ADME, human. The procedure:
(§1) Plasma protein binding was determined by rapid equilibrium dialysis. Plasma was freshly prepared from blood samples drawn in to EDTA (anticoagulant) containing tubes. Plasma was prepared using a table-top centrifuge and spun per instruction of the tube manufacturer and specifications (Beckton, Dickinson and Company, Franklin Lakes, NJ) and placed on ice prior to use.
(§2) Pooled plasma samples were centrifuged at 2000 rpm (approximately 1400g) for 15 min at 4 °C to remove debris. Approximately 90% of the clear supernatant fraction was transferred to a separate tube. Samples (500 μL) were then spiked with a 100× stock solution 100 μM, 0.5 mM, and 10 mM ETX1317 in DMSO respectively for 1, 5, and 100 μM final concentrations, transferred to the top of the filter chambers, and allowed to equilibrate for 15 min prior to centrifugation. The filtrate tubes were centrifuged at 14000g for 15 min at 4 °C. Next, 50 μL of the filtrate was precipitated with 300 μL of acetonitrile containing 250 ng/mL of carbutamide as the internal standard and the samples were analyzed by LC/MS/MS analysis.

Data set [2] relates to K. pneumoniae ARC4420. Put plainly: Chemostat in vitro infection model, dose fractionation. Type of data set: cell-based. Particulars: with CPD. The procedure: (§3) The PK/PD driver of ETX1317 was assessed in the presence of CPD in both hollow-fiber[28]−[31] and chemostat[32]in vitro infection model systems. In all cases, CPD was administered q12h via a 2 h infusion and eliminated with a 2 h half-life, with the concentration of drug exceeding the MIC (the MIC of CPD in the presence of ETX1317 at a 1:2 ratio) for 50% of the dosing interval for each strain. Representative Emax plots are shown graphically for Escherichia coli ARC2687 in the hollow-fiber model and Klebsiella pneumoniae ARC4420 in the chemostat system (Figure 2). […] This could partially be attributed to the distribution of the concentration ranges utilized for the hollow-fiber infection model (HFIM) where most of the data scatter occurred in the efficacious dose range for lower MIC strains. It is important to note that initial evaluation of K. pneumoniae ARC4420 and ARC5118 was completed in the HFIM but rapid degradation of CPD, presumably through accumulation of β-lactamases in the extra-capillary space of the cartridge precluded a reliable assessment of the PK/PD driver with these strains in this model.[32] […] In both the HFIM and chemostat models the optimum critical threshold of ETX1317 was established through iterative Emax fitting of a range of ETX1317 concentrations from 0.5× to 2× the CPD:ETX1317 MIC value. In the HFIM, %Time > ETX1317 CT of 2× MIC provided the highest correlation to observed activity which appeared to be independent to the apparent intrinsic activity of ETX1317 (as reflected by ETX1317 MICBLI of K. pneumoniae ARC4486 vs ARC4488). […] In both models CPD infused alone mimicked vehicle control as expected with similar growth of +2 to 4 log10 CFU/mL.
(§4) Enterobacteriaceae isolates E. coli ARC2687 and K. pneumoniae isolates ARC4486, ARC4488, ARC5118, and ARC4420 were prepared for infection from an overnight plate culture. On the day of the experiment, a few colonies of bacteria were inoculated in Mueller Hinton Broth II (MHBII, Sigma-Aldrich, St. Louis, MO) and incubated at 35 °C until reaching log-phase growth, about 1 h. In hollow-fiber studies cell population density is confirmed by turbidimetric assay (OD600) and final dilution is adjusted to deliver approximately 15 mL of bacteria (1 × 10^6 CFU/mL) to the extra-capillary space of the hollow-fiber cartridge (Fibercell Systems, Inc., Frederick, MD). After 1 h, targeted drug concentrations were introduced using a 2 h infusion via a syringe pump (Harvard Apparatus, Holliston, MA). […]
(§5) Dose range and dose fractionation were performed in hollow-fiber infection model (HFIM) and chemostat (one-compartment) in vitro infection model. […] CPD concentrations were targeted to achieve exposure of ∼50%Time > MIC determined in the presence of ETX1317. […]

In data set [3] the test system is K. pneumoniae ARC5118. Described as above. The data set is classed as cell-based. Particulars: with CPD. As for the experimental part: as §3, §4, §5
Data set [4] has as its system E. coli ARC4419. The data set is described as follows: MIC, broth microdilution (CLSI). The data set is classed as cell-based. Particulars: Escherichia coli, combination at 1:2 ratio cefpodoxime:ETX1317, MIC of CPD. The procedure:
(§6) MICs were determined utilizing a 1:2 ratio of cefpodoxime:ETX1317. […] The isolates utilized in the present study (Table 1) were broadly insensitive to CPD, presumably due to the presence of ESBLs and carbapenemases expressed in these strains. The addition of ETX1317 restored CPD activity to ≤1 μg/mL across all the tested isolates.
(§7) The MIC of each isolate was determined using the broth microdilution method following CLSI guidelines of document M07-A7 (CLSI M07-A7).
Background: Broth dilution looks for growth in wells or tubes with falling amounts of substance.

Data set [5] relates to E. coli ARC2687. The data set is described as follows: MIC, broth microdilution (CLSI). The data set is classed as cell-based. Particulars: Escherichia coli, ARC2687; combination at 1:2 ratio cefpodoxime:ETX1317, MIC of CPD. As for the experimental part: as §6, §7
The test system of data set [6] is K. pneumoniae ARC4488. Put plainly: MIC, broth microdilution (CLSI). The data set is classed as cell-based. Particulars: Klebsiella pneumoniae, ARC4488; combination at 1:2 ratio cefpodoxime:ETX1317, MIC of CPD. The procedure: as §6, §7
Data set [7] deals with K. pneumoniae ARC4420. The data set is described as follows: MIC, broth microdilution (CLSI). The data set is classed as cell-based. Particulars: Klebsiella pneumoniae, combination at 1:2 ratio cefpodoxime:ETX1317, MIC of CPD. The procedure: as §6, §7
For data set [8], the system named is K. pneumoniae ARC5118. Put plainly: MIC, broth microdilution (CLSI). The data set is classed as cell-based. The note with it: Klebsiella pneumoniae, ARC5118; combination at 1:2 ratio cefpodoxime:ETX1317, MIC of CPD. The procedure:
as §6, §7

Data set [9] has as its system K. pneumoniae ARC4486. Put plainly: MIC, broth microdilution (CLSI). Type of data set: cell-based. Particulars: Klebsiella pneumoniae, combination at 1:2 ratio cefpodoxime:ETX1317, MIC of CPD. The procedure: as §6, §7
Data set [10] in a line: Plasma protein binding. The data set is classed as in vitro ADME, dog. As for the experimental part:
as §1, §2

What is called MIC is the smallest concentration in the dilution series that meets the test's criterion for growth inhibition. Take `CC1=C[C@@H](C(N)=O)N2C[C@@H]1N(O[C@H](F)C(=O)O)C2=O` [ETX1317]: the Proportion unbound in [1] (1 µM) worked out at 82%; in data set [1] (5 µM), 99%; in [1] (100 µM), 80%; in data set [10] (1 µM) it was 92%; in data set [10] (5 µM), 100%; in data set [10] (100 µM), 81%. In addition, the figures for the “%Time > CT of 1 μg/mL for 1–log10 kill” value in data set [2] and in [3] were 63% and 65%, respectively. Moreover, the “%Time > CT of 1 μg/mL for stasis” value in data set [2] came out at 59%; in [3], 60%. Also, the minimum inhibitory concentration (MIC) in data set [4] stood at 0.25 µg/mL; in data set [5], 0.5 µg/mL; in data set [6], 0.5 µg/mL; in data set [7] it was 16 µg/mL; in [8], 32 µg/mL; in data set [9], 32 µg/mL.
